Results from patent US7884114B2, “Compounds” (Glaxo Group Limited, priority 2007, dated 2011).
Counter-ions that a name gives are not always drawn. Like-named read-outs stand apart in the source and are kept apart here.

Columns and labels:
human H1 receptor [1] = target: T1, human H1 receptor (Homo sapiens, UniProt P35367); test: Histamine H1 functional antagonist assay (FLIPR): functional pKi; format: cell-based; conditions: CHO cells expressing human H1 receptor, histamine EC80, read-out: average pKi (pKb) at H1 (converted)
T1 construct: expressed in transfected cells
T1 sequence (P35367 whole entry): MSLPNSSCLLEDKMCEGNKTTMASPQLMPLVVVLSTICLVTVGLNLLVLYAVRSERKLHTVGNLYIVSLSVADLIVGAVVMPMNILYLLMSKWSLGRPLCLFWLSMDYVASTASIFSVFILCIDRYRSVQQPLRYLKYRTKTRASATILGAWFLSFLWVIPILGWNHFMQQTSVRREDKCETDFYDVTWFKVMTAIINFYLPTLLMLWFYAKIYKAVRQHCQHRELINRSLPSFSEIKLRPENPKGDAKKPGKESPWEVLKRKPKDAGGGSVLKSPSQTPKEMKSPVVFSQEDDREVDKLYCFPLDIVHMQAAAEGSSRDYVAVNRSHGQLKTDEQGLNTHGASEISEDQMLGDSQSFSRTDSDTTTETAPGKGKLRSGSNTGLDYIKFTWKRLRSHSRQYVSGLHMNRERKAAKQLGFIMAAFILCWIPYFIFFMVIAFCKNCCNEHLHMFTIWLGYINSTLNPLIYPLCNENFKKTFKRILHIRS
Experimental: (§1) The human H1 receptor is cloned using known procedures described in the literature [Biochem. Biophys. Res. Commun., 201(2):894 (1994)]. Chinese hamster ovary (CHO) cells stably expressing the human H1 receptor are generated according to known procedures described in the literature [Br. J. Pharmacol., 117(6):1071 (1996)].
10 μl of test compound, diluted to the required concentration in Tyrodes buffer+probenecid (or 10 μl Tyrodes buffer+probenecid as a control) is added to each well and the plate is incubated for 30 min at 37° C., 5% CO2.

human H1 receptor [2] = target: T1, human H1 receptor; test: Histamine H1 functional antagonist assay (FLIPR): antagonist pA2; format: cell-based
Experimental: as §1
Histamine H1 Functional Antagonist Assay: Determination of Antagonist pA2 and Duration
The histamine H1 receptor expressing CHO cells are seeded into non-coated black-walled clear bottom 96-well tissue culture plates as described above.
Following overnight culture, growth medium is removed from each well, washed with 200 μl PBS and is replaced with 50 μl loading dye (250 μM Brilliant Black, 1 μM Fluo-4 diluted in Tyrodes buffer+probenecid (145 mM NaCl, 2.5 mM KCl, 10 mM HEPES, 10 mM D-glucose, 1.2 mM MgCl2, 1.5 mM CaCl2, 2.5 mM probenecid, pH adjusted to 7.40 with NaOH 1.0 M)). Cells are incubated for 45 min at 37° C. The loading buffer is removed and the cells are washed as above, and 90 μl of Tyrodes buffer+probenecid is added to each well. 10 μl of test compound, diluted to the required concentration in Tyrodes buffer+probenecid (or 10 μl Tyrodes buffer+probenecid as a control) is added to each well and the plate is incubated for 30 min at 37° C., 5% CO2.
The plates are then placed into a FLIPR™ (Molecular Devices, UK) to monitor cell fluorescence (λex=488 nm, λEM=540 nm) in the manner described in Sullivan et al., (In: Lambert D G (ed.), Calcium Signaling Protocols, New Jersey: Humana Press, 1999, 125-136) before and after the addition of 50 μl histamine over a concentration range of 1 mM-0.1 nM. […] The antagonist pA2 is calculated using the following standard equation: pA2=log(DR−1)−log [ B] where DR=dose ratio, defined as EC50antagonist-treated/EC50control and [B]=concentration of antagonist.

[3] = system: histamine-induced nasal congestion; test: Intranasal challenge method: whole body plethysmography, histamine-induced nasal congestion; format: in vivo, Dunkin-Hartley guinea pigs; conditions: for inhibition of response to histamine challenge: dosed intranasally at 1 mg/ml
Experimental: Intranasal Challenge Method: Whole Body Plethysmography
Female Dunkin-Hartley guinea pigs 150-250 g are sensitised twice daily for 5 days (week 1) with ovalbumin (OVA) and aluminium hydroxide (Al(OH)3 or Alum) in physiological saline, 25 μl/nostril. Solution is made up at 20 μg/ml OVA, 180 mg/ml Alum. During weeks 2 and 3 animals receive 25 μl/nostril of OVA (5 mg/ml) once daily. During Week 4 guinea pigs will be entered into study but are continually sensitized as per weeks 2 and 3 until the day before dosing with compound or vehicle.
(b) Compound Vehicle Pretreatment
Pretreatment with test compound is performed at various times prior to histamine challenge. Efficacy dose-response curves are determined 1 hr and/or 3 hr after dosing whereas duration of action may be studied up to 7 days post dose (for example, at 24 hours). Test compounds are formulated as solutions in 0.9% sterile saline or suspensions in 0.9% sterile saline/tween80.
Guinea pigs were anaesthetised with isoflurane (5%, 2-31/min O2), placed in a supine position, and 25 μl of test compound or vehicle dosed into each nostril using a Gilson pipette. After dosing, animals remain supine for at least 30 seconds (e.g. 60 seconds) during recovery from anaesthesia.
(c) Histamine Challenge Protocol
G. & Gelfand, E. W. (1997), Noninvasive measurement of airway responsiveness in allergic mice using barometric plethysmography., Am. J. Respir. Crit. Care Med., 156, 766-775.
After the stipulated pre-dose time has been reached, guinea pigs are re-anaesthetised with isoflurane and dosed with either 10 mM or 15 mM histamine or phosphate-buffered saline (PBS), (25 μl per nostril). […] These recordings are summed to give a cumulative AUC over 40 mins post histamine challenge for each animal. Data are analysed using ANOVA with post-hoc Fishers LSD test (general linear models, Statistica®) and finally Hochberg adjustment. Inhibition of histamine-induced congestion is determined by statistically significant differences between the mean responses of compound pre-treated groups compared to the vehicle pre-treated, histamine-challenged group.

human H1 receptor [4] = target: T1, human H1 receptor; test: Histamine H1 functional antagonist assay: antagonist duration after washout; format: cell-based; conditions: at one or more time points
Experimental: The human H1 receptor is cloned using known procedures described in the literature [Biochem. Biophys. Res. Commun., 201(2):894 (1994)]. Chinese hamster ovary (CHO) cells stably expressing the human H1 receptor are generated according to known procedures described in the literature [Br. J. Pharmacol., 117(6):1071 (1996)]. […] Following the 30 min antagonist incubation period, the cells are washed two or three times with 200 μl of PBS and then 100 μl Tyrodes buffer is added to each well to initiate antagonist dissociation. […] After this period, the cells are challenged with histamine in the FLIPR™ as described above. […] The decrease in receptor occupancy over time approximates to a straight line and is analysed by linear regression. The slope of this straight line fit is used as an index of the dissociation rate of the antagonist. The dose ratios for antagonist treated cells and for antagonist treated and washed cells at each time point are used to calculate a relative dose ratio (rel DR) which is also used as an index of antagonist duration. Antagonists with long duration of action produce rel DR values close to 1, and antagonists with short duration of action produce rel DR values that approaches the dose ratio value obtained for antagonist treatment alone.

[5] = CHO cells expressing H1 receptor, FLIPR, histamine concentration response curves, read-out: average pA2 (converted)

| SMILES | Kb (human H1 receptor [2]; [5]) [nM] | other results |
| --- | --- | --- |
| CCCCc1cc(OC2CCN(CCNS(=O)(=O)CC(C)C)CC2)c2ncccc2c1 [Example 15, N-(2-{4-[(6-Butyl-8-quinolinyl)oxy]-1-piperidinyl}ethyl)-2-methyl-1-propanesulfonamide, dihydrochloride salt] | < 10 | Ki (human H1 receptor [1]): < 100 nM |
| CCCCc1cc(OC2CCN(CCCS(=O)(=O)C3CCCC3)CC2)c2ncccc2c1 [Example 8, 6-Butyl-8-({1-[3-(cyclopentylsulfonyl)propyl]-4-piperidinyl}oxy)quinoline, formate salt (1:1)] |  | Kb (human H1 receptor [2]): < 100 nM |
| CCCCc1cc(OC2CCN(CCCNS(=O)(=O)C(C)C)CC2)c2ncccc2c1 [Example 19, N-(3-{4-[(6-Butyl-8-quinolinyl)oxy]-1-piperidinyl}propyl)-2-propanesulfonamide, dihydrochloride salt] | < 1 |  |
| CCCCc1cc(OC2CCN(CCNS(=O)(=O)c3ccccc3)CC2)c2ncccc2c1 [Example 16, N-(2-{4-[(6-Butyl-8-quinolinyl)oxy]-1-piperidinyl}ethyl)benzenesulfonamide, dihydrochloride salt] | < 10 | Ki (human H1 receptor [1]): < 100 nM |
| CCCCc1cc(OC2CCN(CCCCCNS(C)(=O)=O)CC2)c2ncccc2c1 [Example 31, N-(5-{4-[(6-Butyl-8-quinolinyl)oxy]-1-piperidinyl}pentyl)methanesulfonamide, dihydrochloride salt] | < 1 |  |
| CN1CCCC(n2nc(Cc3ccc(Cl)cc3)c3ccccc3c2=O)CC1 (stereo not drawn) [azelastine, reference compound] |  | duration of action in intranasal challenge model ([3]; administered at the same concentration (1 mg/ml intranasally)): failed to show a similar duration of action |
| CCCCc1cc(OC2CCN(CCCNS(=O)(=O)CCC)CC2)c2ncccc2c1 [Example 18, N-(3-{4-[(6-Butyl-8-quinolinyl)oxy]-1-piperidinyl}propyl)-1-propanesulfonamide, dihydrochloride salt] | < 1 |  |
| CCCCc1cc(OC2CCN(CCCNC(=O)NCCC)CC2)c2ncccc2c1 [Example 36, N-(3-{4-[(6-Butyl-8-quinolinyl)oxy]-1-piperidinyl}propyl)-N′-propylurea, dihydrochloride salt] |  | Kb (human H1 receptor [2]): < 1 nM |
| CCCCc1cc(OC2CCN(CCS(=O)(=O)C(C)(C)C)CC2)c2ncccc2c1 [Example 2, 6-Butyl-8-[(1-{2-[(1,1-dimethylethyl)sulfonyl]ethyl}-4-piperidinyl)oxy]quinoline, dihydrochloride salt] | < 1 |  |
| CCCCc1cc(OC2CCN(CCCCNS(=O)(=O)CC)CC2)c2ncccc2c1.Cl.Cl [Example 23B, N-(4-{4-[(6-Butyl-8-quinolinyl)oxy]-1-piperidinyl}butyl)ethanesulfonamide, dihydrochloride salt] |  | inhibition of response to histamine challenge ([3]; 3 hr before histamine challenge): significantly (p<0.05) inhibited the response; inhibition of response to histamine challenge ([3]; 24 hr before histamine challenge): significantly (p<0.05) inhibited the response |
| CCCCCc1cc(OC2CCN(CCCS(=O)(=O)CC)CC2)c2ncccc2c1 [Example 11, 8-({1-[3-(Ethylsulfonyl)propyl]-4-piperidinyl}oxy)-6-pentylquinoline, dihydrochloride salt] | < 1 |  |
| CCCCc1cc(O[C@@H]2CCN(CCCS(=O)(=O)C(C)(C)C)C2)c2ncccc2c1 [Example 12, 6-Butyl-8-[((3R)-1-{3-[(1,1-dimethylethyl)sulfonyl]propyl}-3-pyrrolidinyl)oxy]quinoline, dihydrochloride salt] | < 100 |  |
| CCCCc1cc(OC2CCN(C3CCS(=O)(=O)C3)CC2)c2ncccc2c1 (stereo not drawn) [Example 13, 6-Butyl-8-{[1-(1,1-dioxidotetrahydro-3-thienyl)-4-piperidinyl]oxy}quinoline] | < 100 | Ki (human H1 receptor [1]): < 100 nM |
| CCCCc1cc(OC2CCN(CCCCCNS(=O)(=O)CC)CC2)c2ncccc2c1 [Example 32, N-(5-{4-[(6-Butyl-8-quinolinyl)oxy]-1-piperidinyl}pentyl)ethanesulfonamide, dihydrochloride salt] | < 1 |  |
| CCCCc1cc(OC2CCN(CCCCNS(=O)(=O)CC3CCCCC3)CC2)c2ncccc2c1 [Example 28, N-(4-{4-[(6-Butyl-8-quinolinyl)oxy]-1-piperidinyl}butyl)-1-cyclohexyl methane sulfonamide, dihydrochloride salt] | < 10 |  |
| CCCCc1cc(OC2CCN(CCCS(C)(=O)=O)CC2)c2ncccc2c1 [Example 3, 6-Butyl-8-({1-[3-(methylsulfonyl)propyl]-4-piperidinyl}oxy)quinoline, dihydrochloride salt] | < 10 |  |
| CCCCc1cc(OC2CCN(CCCCNS(=O)(=O)CC(C)C)CC2)c2ncccc2c1 [Example 26, N-(4-{4-[(6-Butyl-8-quinolinyl)oxy]-1-piperidinyl}butyl)-2-methyl-1-propanesulfonamide, dihydrochloride salt] |  | duration of action compared with azelastine (human H1 receptor [4]): longer duration of action than azelastine |
